{"source": "patent US20030044400A1", "about": "“Composition and method for treating cells” (priority 2001, published 2003)", "key": {"LNCaP cells": {"test_system": "LNCaP cells", "test": "Fetuin-induced apoptosis, Hoechst staining confirmed by MTS assay", "type": "cell-based, Human", "method": "The purified fetuin was tested on various cancer cell lines. […] The DNA condensation and breakage of nuclei which are the characteristics for apoptosis were observed by staining the cell with Hoechst dye at 0.1 ug/ml.\nFetuin purified by modified Spiro method was further incubated with Zinc Acetate or Barium Acetate (0.25M) at room temperature for 1 hr. Free ions were removed by repetitive concentration against 20 volumes of PBS three times. Fetuin, Zn-charged fetuin and Ba-charged fetuin (5 uM) and PBS were then separately incubated with LNCaP cells for 4 hr. Percent of cells under apoptosis was determined by Hoechst staining and confirmed by MTS assay. Each data represents the average of two assays. Zn-charged or Ba-charged fetuin may contain free Zn or Ba (about 30 uM). However, all the cell lines are not affected by Zn or Ba alone at all concentrations tested (up to 66 uM).\nVarious concentrations of Zn-charged fetuin prepared as described were incubated with cell lines for 6 hr. Percent of cell under apoptosis was determined by Hoechst staining and confirmed by MTS assay. The concentration of Zn-charged fetuin for the induction of 50% of cells under apoptosis (LD50) was determined. Each data represents the average of three assays."}, "PC-3 induced tumor": {"test_system": "PC-3 induced tumor", "test": "Prostate tumor (PC-3) in immunodeficient mice", "type": "in vivo, immunodeficient mice (TACN: NH (S)—NuFDF homozygous males)", "settings": "for reduction of prostate tumor: immunodeficient mice, 5 mg/30 g body weight, 5 days consecutive ip injection, vs control", "method": "Another set of experiments were designed using immunodeficient mice (TACN: NH (S)—NuFDF homozygous males 3-4 wks old). The 2×10^7 PC-3 cells were implanted and allowed to grow for 6 wks. The mice in the control group received 0.5 ml saline intraperitoneally for 5 days and in the treated group received 0.5 ml Fetuin for 5 days.\nThe mice divided into 5 each group in this study were TACN:NH (S)—NuFDF homozygous males 3-4 weeks old and weighed an average of 22 g at the start of the experiment and 30 g at the termination of the experiment six weeks later. The animals were induced to prostate tumor formation by inoculating 2×10^7 PC-3 cells in 0.1 ml PBS suspension on the upper half of the dorsal thorax of the mouse. The tumor will be allowed to grow for 6 weeks. The mice in the control group will receive 0.1 ml saline intraperitoneally for 5 days and the mice in the treated group will receive 0.02 ml, 0.1 ml and 0.2 ml of Fetuin 10 mg/ml per day for 5 days. Treatment will start the day after tumor inoculation. Tumor will be weighed at the end of the experiment when the mice will be sacrificed for subsequent histopathology. Animals will be monitored daily for signs of tumor and/or any toxic effects from the test material."}, "[1]": {"test": "Antigenic response after Fetuin injection", "type": "in vivo", "settings": "mice, rat and rabbits to bovine", "source_text": "However, the species are mice, rat and rabbits to bovine, not human to bovine. The amino acid sequence of Fetuin homologue between species is about 65%. Because the mechanism of Fetuin exerting the drug effect is by binding to the growth factors, this is expected to have less immune response than other protein nature drugs."}, "[2]": {"settings": "immunodeficient mice with PC-3, 0.5 ml Fetuin ip for 5 days, 9 mice"}}}
{"substance": "Fetuin: Fetal bovine fetuin purified from fetal bovine serum by modified Spiro method; 60 Kd glycoprotein, homologue of alpha 2-HS glycoprotein", "values": [{"measurement": "LD50 of Fetuin-induced Apoptosis", "setting": "LNCaP cells; LNCaP, Zn-charged fetuin, 6 hr, concentration for 50% of cells under apoptosis, average of three assays", "result": 1, "unit": "µM"}, {"measurement": "induction of apoptosis", "setting": "LNCaP cells; LNCaP, purified fetuin, Hoechst dye 0.1 ug/ml", "result": "strongly induced apoptosis"}, {"measurement": "apoptotic activity by method of preparation", "setting": "LNCaP cells; Pederson Method (Sigma) vs modified Spiro method", "result": "induced apoptosis"}, {"measurement": "apoptosis-inducing activity", "setting": "LNCaP cells; Substitution of Zinc by Barium", "result": "completely abolished"}, {"measurement": "apoptosis-inducing activity in LNCaP cells", "setting": "LNCaP cells; fetal vs mature fetuins at the same concentration", "result": "strongly induced apoptosis"}, {"measurement": "Ave. Mouse Weight (gm)", "setting": "PC-3 induced tumor; [2]", "result": 30.6, "unit": "gm"}, {"measurement": "Ave. Tumor Weight (gm)", "setting": "PC-3 induced tumor; [2]", "result": 0, "unit": "gm"}, {"measurement": "Tumor Incidence (%)", "setting": "PC-3 induced tumor; [2]", "result": 0, "unit": "%"}, {"measurement": "reduction of prostate tumor", "setting": "PC-3 induced tumor", "result": "up to 100%"}, {"measurement": "reduction of prostate tumor", "setting": "PC-3 induced tumor; listed as Fetal fetuin", "result": 100, "unit": "%"}, {"measurement": "hypersensitivity reaction after Fetuin injection", "setting": "[1]", "result": "no hypersensitivity reaction was shown"}]}
